Measurements published in ChEMBL document CHEMBL3351308, “Allosteric modulation of the G protein-coupled US28 receptor of human cytomegalovirus: are the small-weight inverse agonist of US28 'camouflaged' agonists?” (Bioorg Med Chem Lett, 2014).
Residue numbers refer to the chain shown, from its start. The source made the active and inactive calls. The calls are words filed in the database; no cut-off is given here.

Columns and labels:
[1] = molecular target: T1, G-protein coupled receptor homolog US28 (Human cytomegalovirus (strain AD169) (HHV-5) (Human herpesvirus 5), UniProt P69332); experiment: Allosteric modulatory activity at FLAG-tagged wild type human cytomegalovirus US28 receptor expressed in HEK293T cells by PathDetectElk1 assay; type: cell-based, Human betaherpesvirus 5, HEK-293T
T1 sequence (P69332 whole entry): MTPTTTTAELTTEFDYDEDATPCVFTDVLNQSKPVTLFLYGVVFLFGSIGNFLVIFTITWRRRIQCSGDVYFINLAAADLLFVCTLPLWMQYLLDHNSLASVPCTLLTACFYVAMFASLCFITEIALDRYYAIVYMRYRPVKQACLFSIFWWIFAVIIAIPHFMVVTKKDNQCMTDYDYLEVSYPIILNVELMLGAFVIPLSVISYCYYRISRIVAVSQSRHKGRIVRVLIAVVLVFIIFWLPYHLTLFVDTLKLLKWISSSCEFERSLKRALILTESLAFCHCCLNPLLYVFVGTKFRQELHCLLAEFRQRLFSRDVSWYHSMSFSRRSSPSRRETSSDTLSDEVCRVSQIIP

[2] = molecular target: T2, G-protein coupled receptor homolog US28 (Human cytomegalovirus (strain AD169) (HHV-5) (Human herpesvirus 5)) (UniProt P69332); experiment: Allosteric modulatory activity at FLAG-tagged wild type human cytomegalovirus US28 receptor expressed in HEK293T cells by PathDetectElk1 assay relative to basal level; type: cell-based; set-up: concentration or dose not given beside the values; settings: Human betaherpesvirus 5; HEK-293T
T2 sequence (whole entry): T1 sequence (P69332 whole entry)

[3] = molecular target: G protein-coupled receptor (Human betaherpesvirus 5, UniProt Q9IP65); experiment: Allosteric modulatory activity at FLAG-tagged human cytomegalovirus US28 receptor delta300 mutant expressed in HEK293T cells by PathDetectElk1 assay; type: cell-based; settings: hek-293t
Sequence of G protein-coupled receptor (Q9IP65 1-354): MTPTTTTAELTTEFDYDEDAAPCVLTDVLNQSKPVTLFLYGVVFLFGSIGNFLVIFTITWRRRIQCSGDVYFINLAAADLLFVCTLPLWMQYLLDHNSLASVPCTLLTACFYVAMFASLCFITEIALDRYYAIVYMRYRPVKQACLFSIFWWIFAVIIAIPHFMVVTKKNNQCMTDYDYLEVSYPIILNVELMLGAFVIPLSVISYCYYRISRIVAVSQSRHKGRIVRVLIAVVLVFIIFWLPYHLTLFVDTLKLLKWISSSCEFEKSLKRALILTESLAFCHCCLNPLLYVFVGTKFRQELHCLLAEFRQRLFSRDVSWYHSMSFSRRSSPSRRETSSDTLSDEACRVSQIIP

[4] = molecular target: T3, G protein-coupled receptor (Human betaherpesvirus 5) (UniProt Q9IP65); experiment: Allosteric modulatory activity at FLAG-tagged human cytomegalovirus US28 receptor delta300 mutant expressed in HEK293T cells by PathDetectElk1 assay relative to basal level; type: cell-based; settings: HEK-293T
T3 sequence (whole entry): T1 sequence (P69332 whole entry) with T21A, F25L, D170N, R267K, V346A

[5] = molecular target: T3, G protein-coupled receptor (Human betaherpesvirus 5); experiment: Allosteric modulatory activity at FLAG-tagged human cytomegalovirus US28 receptor delta300 mutant expressed in HEK293T cells assessed as reduction in CX3CL1/Fractalkine-induced response by PathDetectElk1 assay; type: cell-based; settings: HEK-293T
[6] = molecular target: T3, G protein-coupled receptor (Human betaherpesvirus 5); experiment: Effect on CX3CL1/Fractalkine binding to FLAG-tagged human cytomegalovirus US28 receptor delta300 mutant expressed in HEK293T cells; type: cell-based; settings: HEK-293T
[7] = molecular target: T3, G protein-coupled receptor (Human betaherpesvirus 5); experiment: Allosteric modulatory activity at FLAG-tagged human cytomegalovirus US28 receptor delta300 mutant expressed in HEK293T cells at 10 uM in presence of CX3CL1/Fractalkine by PathDetectElk1 assay; type: cell-based; settings: HEK-293T
[8] = molecular target: T3, G protein-coupled receptor (Human betaherpesvirus 5); experiment: Allosteric modulatory activity at FLAG-tagged human cytomegalovirus US28 receptor delta300 mutant expressed in HEK293T cells assessed as reduction in CCL5/Rantes-induced response by PathDetectElk1 assay; type: cell-based; settings: HEK-293T
[9] = molecular target: T3, G protein-coupled receptor (Human betaherpesvirus 5); experiment: Increase in CX3CL1/Fractalkine binding to FLAG-tagged human cytomegalovirus US28 receptor delta300 mutant expressed in HEK293T cells; type: cell-based; settings: HEK-293T

Compound	EC50 [1]	Efficacy [2]	EC50 [3]	pEC50 [3]	Efficacy [4]	Activity [5]	Activity [6]	Activity [7]	Activity [8]	Activity [9]
N#CC(CCCN1CCC(O)(c2ccc(Cl)cc2)CC1)(c1ccccc1)c1ccccc1 [BERLEX COMPOUND]	4500 nM	-22%	> 10000 nM	< 5	> 180%	–	–	–	–	–
CCCCCCCCCC(=O)N(CCN(C)C)CC1(C)Cc2ccccc2C(=O)N1 (stereo not given)	1500 nM	-20%	> 10000 nM	< 5	> 180%	–	–	–	–	–
CC1(CCO)Cc2ccccc2C(=O)N1c1ccccc1 (stereo not given)	1000 nM	-14%	3100 nM	5.51	-21%	–	–	–	–	–
CC1(COC(=O)Cc2ccccc2)Cc2ccccc2CN1C(=O)Cc1ccccc1 (stereo not given)	3400 nM	-37%	2500 nM	5.59	-29%	Dose-dependent effect	inactive	inactive	Active	–
CSc1ccc2c(c1)C(N1CCN(C)CC1)Cc1ccccc1S2 (stereo not given) [METITEPINE]	350 nM	10%	330 nM	6.48	110%	–	–	–	–	–
CC1(CO)Cc2ccccc2C(=O)N1c1ccccc1 (stereo not given)	4400 nM	41%	930 nM	6.03	27%	–	–	–	–	Active
